Data taken from US9402831B2, “Combination therapy of HSP90 inhibitors with BRAF inhibitors” (Synta Pharmaceuticals Corp., priority 2011, dated 2016).
Values belong to the compound of their own block, whether it stands above or below them.

Tests used:
RPMI-7951 melanoma cells [1] = test: Western blotting, RPMI-7951 cells; assay type: cell-based, human; settings: western blot, FIG. 5
Experimental: (§1) Human melanoma cell lines carrying the V600E BRAF mutation (A375, SK-MEL-28, RPMI-7951) and human prostate cancer cells (LNCaP, 22Rv1) were purchased from the American Type Culture Collection (Manassas, Va.) and grown following ATCC recommendations, in the presence of fetal bovine serum (10%), 2 mM L-glutamine and antibiotics (100 IU/ml penicillin and 100 μg/ml streptomycin) purchased from Sigma Aldrich. Cells were maintained at 37° C., 5% CO2 atmosphere.
(§2) Cells, treated with compound for 24 hr, were lysed in RIPA buffer (CST, Danvers, Mass., USA) on ice and clarified by centrifugation. Equal amounts of proteins were resolved by SDS-PAGE and immunoblotted with indicated antibodies. The antigen-antibody complex was visualized and quantitated using an Odyssey system (LI-COR, Lincoln, Nebr., USA).

[2] = system: B-raf V600E in melanoma cell line A375; settings: cited from earlier work
[3] = system: B-raf mutants in COS cells; settings: cited from earlier work
ACN = test: Cell viability assay (Cell Titer-Glo), ACN; assay type: cell-based; settings: Homo sapiens, neuroblastoma, BRAF V600E, read-out: Ganetespib IC50
Experimental: (§3) Cell viability was measured using the Cell Titer-Glo assay (Promega). In brief, cells were plated in 96-well plates in triplicate at optimal seeding density (determined empirically for each cell line) and incubated at 37° C., 5% CO2 atmosphere for 24 hr prior to the addition of drug or vehicle (0.3% DMSO) to the culture medium. At the end of the assay, Cell Titer-Glow was added to the wells per manufactures recommendation, shaken for two minutes and incubated for 10 minutes at room temperature. Luminescence (0.1 sec) was measured with a Victor II microplate reader (Perkin Elmer) and the resulting data were used to calculate cell viability, normalized to vehicle control.

RKO = test: Cell viability assay (Cell Titer-Glo), RKO; assay type: cell-based; settings: Homo sapiens, carcinoma, BRAF V600E, read-out: Ganetespib IC50
Experimental: as §3

IST-MEL1 = test: Cell viability assay (Cell Titer-Glo), IST-MEL1; assay type: cell-based; settings: Homo sapiens; IST-MEL1, malignant melanoma, BRAF V600E; read-out: Ganetespib IC50
Experimental: as §3

LS-411N = test: Cell viability assay (Cell Titer-Glo), LS-411N; assay type: cell-based; settings: Homo sapiens, carcinoma, BRAF V600E, read-out: Ganetespib IC50
Experimental: as §3

COLO-829 = test: Cell viability assay (Cell Titer-Glo), COLO-829; assay type: cell-based; settings: Homo sapiens; COLO-829, malignant melanoma, BRAF V600E; read-out: Ganetespib IC50
Experimental: as §3

HT-144 = test: Cell viability assay (Cell Titer-Glo), HT-144; assay type: cell-based; settings: Homo sapiens; HT-144, malignant melanoma, BRAF V600E; read-out: Ganetespib IC50
Experimental: as §3

SK-HEP-1 = test: Cell viability assay (Cell Titer-Glo), SK-HEP-1; assay type: cell-based; settings: Homo sapiens, SK-HEP1; SK-HEP-1, carcinoma, BRAF V600E; read-out: Ganetespib IC50
Experimental: as §3

A101D = test: Cell viability assay (Cell Titer-Glo), A101D; assay type: cell-based; settings: Homo sapiens, malignant melanoma, BRAF V600E, read-out: Ganetespib IC50
Experimental: as §3

SW982 = test: Cell viability assay (Cell Titer-Glo), SW982; assay type: cell-based; settings: Homo sapiens; SW982, synovial sarcoma, BRAF V600E; read-out: Ganetespib IC50
Experimental: as §3

K5 = test: Cell viability assay (Cell Titer-Glo), K5; assay type: cell-based; settings: Homo sapiens; K5, carcinoma, BRAF V600E; read-out: Ganetespib IC50
Experimental: as §3

SH-4 = test: Cell viability assay (Cell Titer-Glo), SH-4; assay type: cell-based; settings: Homo sapiens; SH-4, malignant melanoma, BRAF V600E; read-out: Ganetespib IC50
Experimental: as §3

DBTRG-05MG = test: Cell viability assay (Cell Titer-Glo), DBTRG-05MG; assay type: cell-based; settings: Homo sapiens, glioma, BRAF V600E, read-out: Ganetespib IC50
Experimental: as §3

SK-MEL-5 = test: Cell viability assay (Cell Titer-Glo), SK-MEL-5; assay type: cell-based; settings: Homo sapiens; SK-MEL-5, malignant melanoma, BRAF V600E; read-out: Ganetespib IC50
Experimental: as §3

A375 = test: Cell viability assay (Cell Titer-Glo), A375; assay type: cell-based; settings: Homo sapiens, A-375; A375, malignant melanoma, BRAF V600E; read-out: Ganetespib IC50
Experimental: as §1, §3

HTC-C3 = test: Cell viability assay (Cell Titer-Glo), HTC-C3; assay type: cell-based; settings: Homo sapiens; HTC-C3, carcinoma, BRAF V600E; read-out: Ganetespib IC50
Experimental: as §3

SW872 = test: Cell viability assay (Cell Titer-Glo), SW872; assay type: cell-based; settings: Homo sapiens; SW872, liposarcoma, BRAF V600E; read-out: Ganetespib IC50
Experimental: as §3

UACC-257 = test: Cell viability assay (Cell Titer-Glo), UACC-257; assay type: cell-based; settings: Homo sapiens; UACC-257, malignant melanoma, BRAF V600E; read-out: Ganetespib IC50
Experimental: as §3

RVH-421 = test: Cell viability assay (Cell Titer-Glo), RVH-421; assay type: cell-based; settings: Homo sapiens; RVH-421, malignant melanoma, BRAF V600E; read-out: Ganetespib IC50
Experimental: as §3

MZ7-mel = test: Cell viability assay (Cell Titer-Glo), MZ7-mel; assay type: cell-based; settings: Homo sapiens, malignant melanoma, BRAF V600E, read-out: Ganetespib IC50
Experimental: as §3

MMAC-SF = test: Cell viability assay (Cell Titer-Glo), MMAC-SF; assay type: cell-based; settings: Homo sapiens, malignant melanoma, BRAF V600E, read-out: Ganetespib IC50
Experimental: as §3

[4] = system: human cancer cells harboring the V600E mutation in BRAF; test: Cell viability, panel of BRAF mutant cancer cell lines; assay type: cell-based; settings: large panel of human cancer cells harboring BRAF V600E; read-out: IC50 across panel
Experimental: as §3

RPMI-7951 melanoma cells [5] = test: Cell viability assay, RPMI-7951 melanoma cells; assay type: cell-based; settings: Homo sapiens; RPMI-7951 cells; read-out: IC90 cell killing
Experimental: as §1, §3

A375 melanoma cells = test: Western blotting, A375 cells; assay type: cell-based, human; settings: A375, 24 hr, western blot
Experimental: as §1, §2

SK-MEL-28 melanoma cells = test: Western blotting, SK-MEL-28 cells; assay type: cell-based, human; settings: SK-MEL-28, 24 hr, western blot, FIG. 1
Experimental: as §1, §2

Compound: Cn1cnc2c(F)c(Nc3ccc(Br)cc3Cl)c(C(=O)NOCCO)cc21 [AZD6244, reference compound]
suppression of ERK phosphorylation (RPMI-7951 melanoma cells [1]; RPMI-7951 (overexpress COT), 24 hr): neither the MEK inhibitor AZD6244 nor the BRAF inhibitor PLX-4032 were capable of suppressing ERK phosphorylation

Compound: C=CCNC1=C2C[C@@H](C)C[C@H](OC)[C@H](O)[C@@H](C)/C=C(\C)[C@H](OC(N)=O)[C@@H](OC)/C=C\C=C(/C)C(=O)NC(=CC1=O)C2=O [Compound 17AAG]
B-raf degradation rate versus wild type B-raf CHL cells [2]: degraded more rapidly
degradation of B-raf mutants E586K and L597V ([3]; cells treated with 17AAG): not sensitive to degradation
degradation of B-raf mutants V600D, G469A, G469E, G596R, G466V, G594V ([3]; transvected into COS cells, versus wild type B-raf): degraded more rapidly than wild type B-raf

IC50 (COLO-829): 5 nM
IC50 (HT-144): 6 nM
IC50 (SK-HEP-1): 9 nM
IC50 (SW982): 10 nM
IC50 (SK-MEL-5): 18 nM
IC50 (A375): 20 nM
IC50 (SW872): 22 nM
IC50 [4]: 4 to 40 nM
Compound: CC(C)c1cc(-c2nnc(O)n2-c2ccc3c(ccn3C)c2)c(O)cc1O [Ganetespib, 3-(2,4-DIHYDROXY-5- ISOPROPYL-PHENYL)-4-(1- METHYL-INDOL-5-YL)-5- HYDROXY-[1,2,4]TRIAZOLE]
IC50 (ACN): 4 nM
IC50 (RKO): 4 nM
IC50 (IST-MEL1): 4 nM
IC50 (LS-411N): 5 nM
IC50 (A101D): 9 nM
IC50 (K5): 11 nM
IC50 (SH-4): 12 nM
IC50 (DBTRG-05MG): 14 nM
IC50 (HTC-C3): 21 nM
IC50 (UACC-257): 24 nM
IC50 (RVH-421): 26 nM
IC50 (MZ7-mel): 26 nM
IC50 (MMAC-SF): 31 nM
IC90 (RPMI-7951 melanoma cells [5]): 10 nM
MEK and ERK activity (A375 melanoma cells; FIG. 1): loss of MEK and ERK activity
destabilizing mutant BRAF (A375 melanoma cells; FIG. 1): fully capable of destabilizing mutant BRAF
Cdc2 stability (A375 melanoma cells; FIG. 2): destabilized Cdc2
PI3K and mTOR-mediated phosphorylation of AKT and 4EBP1 (A375 melanoma cells; FIG. 2): suppressed
apoptosis as determined by PARP cleavage (A375 melanoma cells; FIG. 2): resulting in apoptosis
destabilization of BRAF dimerization partner CRAF (A375 melanoma cells; FIG. 3): able to destabilize
potency in deactivating/dephosphorylating ERK versus PLX-4032 or AZD6244 (A375 melanoma cells; FIG. 3): greater potency
MEK and ERK activity (SK-MEL-28 melanoma cells): loss of MEK and ERK activity
destabilizing mutant BRAF (SK-MEL-28 melanoma cells): fully capable of destabilizing mutant BRAF
AKT activity (RPMI-7951 melanoma cells [1]; RPMI-7951, 24 hr): effectively inhibited
MEK and ERK activity (RPMI-7951 melanoma cells [1]; RPMI-7951, 24 hr): effectively inhibited
